We go through ten compounds from patent US12421279B2, “Cyclic peptide antiviral agents and methods using same” (priority 2016, dated 2025).

For assay [1], the target named is T1, wild type gp120 YU-2 (Human immunodeficiency virus type 1 group M subtype B, UniProt P35961).
T1 construct: into 30 μM of YU2 full-length gp120 at 25° C; made in house; host or cells: HEK 293F
Put plainly: Isothermal titration calorimetry binding to gp120. On the set-up: species or system HIV-1. Here is the method:
FIGS. 9A-9C illustrate cPT binding and thermodynamic profile of monomeric wild type gp120 YU-2 for cPTs 3 (FIGS. 9A and 9C) and 36 (FIGS. 9B and 9C). Compound solution, 390 μM (for 3) or 200 μM (for 36), was titrated in 8 μL steps into 30 μM of YU2 full-length gp120 at 25° C. in the reaction chamber of a VP-ITC instrument using 1×PBS buffer at pH 7.3. The resulting heat changes were integrated, and the values obtained were fitted to a quadratic binding equation (one site binding model).
cPT dissociation constants were determined at 25° C. on a VP-Isothermal Titration calorimeter (VP-ITC) system (MicroCal™, GE Healthcare, Freiburg). 200 μM (for 36) or 390 μM (for 3) compound solutions were in 8 μL steps titrated into 30 μM of wild type gp120 YU-2 at 25° C. using 1×PBS buffer at pH 7.3. The resulting heat change upon injection was integrated over a time range of 300 sec, and the obtained values were fitted to a standard single-site binding model using ORIGIN®.
A general note: ITC needs no label: the signal is the heat of the interaction.

Assay [2] relates to HIV-1Bal.01.
Setting [3] is: read-out: HIV-1Bal.01 infection inhibition IC50, HIV-1Bal.01 pseudovirus, HOS.T4.R5 cells.
The mark [4] stands for this setting: read-out: HIV-1 IC50, HIV-1Bal.01 infection inhibition, Table 1.

Several values for one entry are separate records, joined by “and”; a condition that tells them apart may be missing. Identical values can stand only once. Like-named read-outs stand apart in the source and are kept apart here. *1 amine or outer side, *2 acyl side, *3 side chain or, on linkers, in order; H or OH if unused. Where a SMILES comes first, the peptide text is derived from it. Bridges are numbered along the chain shown (N, C = ends). [ ]: non-standard residue; d: D form. X2 = O=C([C@@H]1C[C@H](n2cc([C]34[CH]5[CH]6[CH]7[CH]3[Fe]6754389%10[CH]4[CH]3[CH]8[CH]9[CH]4%10)nn2)CN1[*:1])[*:2]; X17 = O=C([C@@H]1C[C@H](n2cc(C3=CC=C[CH]3[Fe][CH]3C=CC=C3)nn2)CN1[*:1])[*:2]; X11 = Cc1ccc(Cc2cn([C@H]3C[C@@H](C(=O)[*:2])N([*:1])C3)nn2)c(C)c1; X19 = Cc1cc(C)cc(Cc2cn([C@H]3C[C@@H](C(=O)[*:2])N([*:1])C3)nn2)c1; X12 = O=C([C@@H]1C[C@H](n2cc(Cc3ccc(Cl)c(F)c3)nn2)CN1[*:1])[*:2]; X20 = Cc1ccc(Cc2cn([C@H]3C[C@@H](C(=O)[*:2])N([*:1])C3)nn2)cc1C; X10 = Cc1ccc(Cc2cn([C@H]3C[C@@H](C(=O)[*:2])N([*:1])C3)nn2)cc1; X7 = Cc1cccc(Cc2cn([C@H]3C[C@@H](C(=O)[*:2])N([*:1])C3)nn2)c1; X3 = Cc1ccccc1Cc1cn([C@H]2C[C@@H](C(=O)[*:2])N([*:1])C2)nn1; X5 = O=C([C@@H]1C[C@H](n2cc(Cc3ccc(I)cc3)nn2)CN1[*:1])[*:2]

As for `CC[C@H](C)[C@@H]1NC(=O)[C@H](CC(N)=O)NC(=O)[C@@H](N)CC(=O)NCCCC[C@@H](C(N)=O)NC(=O)[C@H](Cc2c[nH]c3ccccc23)NC(=O)[C@@H]2C[C@H](n3cc([C]45[CH]6[CH]7[CH]8[CH]4[Fe]786549%10%11[CH]5[CH]4[CH]9[CH]%10[CH]5%11)nn3)CN2C1=O` (stereo partly drawn) [cPT 3] (H-DNI[X2]WK-NH2; lactam 1-6), in assay [1] (ITC, 25° C.), the ΔH was -5.96 kcal/mol and -5.96 ± 0.13 kcal/mol; the ΔS is reported as 9.22 cal/mol; the “−TΔS” value is -2.75 kcal/mol.

What is called Kd is the concentration at which binding is half-saturated. With `CC[C@H](C)[C@@H]1NC(=O)[C@H](CC(N)=O)NC(=O)[C@@H](N)CC(=O)NCCCC[C@@H](C(N)=O)NC(=O)[C@H](Cc2c[nH]c3ccccc23)NC(=O)[C@@H]2C[C@H](n3cc(C4=CC=C[CH]4[Fe][CH]4C=CC=C4)nn3)CN2C1=O` (stereo partly drawn) [cPT 3] (H-DNI[X17]WK-NH2; lactam 1-6), in assay [1], the affinity, expressed as Kd, was 415 nM.

One may read the IC50 as the midpoint of a concentration-inhibition curve. For `CC[C@H](C)[C@@H]1NC(=O)[C@H](CC(N)=O)NC(=O)[C@@H](N)CC(=O)NCCCC[C@@H](C(N)=O)NC(=O)[C@H](Cc2c[nH]c3ccccc23)NC(=O)[C@@H]2C[C@H](n3cc(Cc4ccc(C)cc4)nn3)CN2C1=O` [cPT 24] (H-DNI[X10]WK-NH2; lactam 1-6 (inferred); N-terminus and C-terminus assumed), the IC50 is around 0.18 µM in assay [2] (setting [3]) and 0.18 ± 0.009 µM in assay [2] (setting [4]). For the compound `CC[C@H](C)[C@@H]1NC(=O)[C@H](CC(N)=O)NC(=O)[C@@H](N)CC(=O)NCCCC[C@@H](C(N)=O)NC(=O)[C@H](Cc2c[nH]c3ccccc23)NC(=O)[C@@H]2C[C@H](n3cc(Cc4ccccc4C)nn3)CN2C1=O` [cPT 25] (H-DNI[X3]WK-NH2; lactam 1-6 (inferred); N-terminus and C-terminus assumed), the values for the IC50 in assay [2] (setting [3]) and in assay [2] (setting [4]) were around 5.1 µM and 5.1 ± 0.22 µM, respectively. As to `CC[C@H](C)[C@@H]1NC(=O)[C@H](CC(N)=O)NC(=O)[C@@H](N)CC(=O)NCCCC[C@@H](C(N)=O)NC(=O)[C@H](Cc2c[nH]c3ccccc23)NC(=O)[C@@H]2C[C@H](n3cc(Cc4cccc(C)c4)nn3)CN2C1=O` [cPT 26] (H-DNI[X7]WK-NH2; lactam 1-6 (inferred); N-terminus and C-terminus assumed), the IC50 in assay [2] (setting [3]) is around 0.22 µM; in assay [2] (setting [4]) it was 0.22 ± 0.042 µM. In the case of `CC[C@H](C)[C@@H]1NC(=O)[C@H](CC(N)=O)NC(=O)[C@@H](N)CC(=O)NCCCC[C@@H](C(N)=O)NC(=O)[C@H](Cc2c[nH]c3ccccc23)NC(=O)[C@@H]2C[C@H](n3cc(Cc4ccc(C)cc4C)nn3)CN2C1=O` [cPT 27] (H-DNI[X11]WK-NH2; lactam 1-6 (inferred); N-terminus and C-terminus assumed), the figures for the IC50 in assay [2] (setting [3]) and in assay [2] (setting [4]) were around 0.302 µM and 0.302 ± 0.05 µM, respectively. Turning to `CC[C@H](C)[C@@H]1NC(=O)[C@H](CC(N)=O)NC(=O)[C@@H](N)CC(=O)NCCCC[C@@H](C(N)=O)NC(=O)[C@H](Cc2c[nH]c3ccccc23)NC(=O)[C@@H]2C[C@H](n3cc(Cc4cc(C)cc(C)c4)nn3)CN2C1=O` [cPT 28] (H-DNI[X19]WK-NH2; lactam 1-6 (inferred); N-terminus and C-terminus assumed), the IC50 in assay [2] (setting [3]) was 2 µM. Take `CC[C@H](C)[C@@H]1NC(=O)[C@H](CC(N)=O)NC(=O)[C@@H](N)CC(=O)NCCCC[C@@H](C(N)=O)NC(=O)[C@H](Cc2c[nH]c3ccccc23)NC(=O)[C@@H]2C[C@H](n3cc(Cc4ccc(C)c(C)c4)nn3)CN2C1=O` [cPT 29] (H-DNI[X20]WK-NH2; lactam 1-6 (inferred); N-terminus and C-terminus assumed): the IC50 in assay [2] (setting [3]) was found to be 8 µM. Take `CC[C@H](C)[C@@H]1NC(=O)[C@H](CC(N)=O)NC(=O)[C@@H](N)CC(=O)NCCCC[C@@H](C(N)=O)NC(=O)[C@H](Cc2c[nH]c3ccccc23)NC(=O)[C@@H]2C[C@H](n3cc(Cc4ccc(Cl)c(F)c4)nn3)CN2C1=O` [cPT 32] (H-DNI[X12]WK-NH2; lactam 1-6): the IC50 in assay [2] (setting [3]) is around 7.3 µM; in assay [2] (setting [4]) it was 7.3 ± 0.74 µM.

With `CC[C@H](C)[C@@H]1NC(=O)[C@H](CC(N)=O)NC(=O)[C@@H](N)CC(=O)NCCCC[C@@H](C(N)=O)NC(=O)[C@H](Cc2c[nH]c3ccccc23)NC(=O)[C@@H]2C[C@H](n3cc(Cc4ccc(I)cc4)nn3)CN2C1=O` [cPT 33] (H-DNI[X5]WK-NH2; lactam 1-6), the IC50 in assay [2] (setting [3]) was around 6 µM; in assay [2] (setting [4]) it was 6 ± 0.45 µM.
